According to patent publication US12303556B2, “Peptides for treatment and prevention of diabetes and associated disorders” (UNIVERSITE DE STRASBOURG, priority 2018, dated 2025):
No end group written: not given here.

Key:
PKC = PKC kinase activity in human adipocytes; format: cell-based; conditions: for PKC kinase activity at 25 μg peptide per well: 25 μg per well, 30 minutes, positive control insulin
Experimental: FIG. 1. PKC kinase activity in human adipocytes induced by peptides from alpha PKC. Primary human adipocytes were cultured overnight without insulin and on the next day, the different conditions were used with for each peptide 25 μg of peptide ECTMVEKKVLALL (SEQ ID NO: 50) or 25 ug of peptide SVEWWAYGLLYEMLA (SEQ ID NO: 51) was added to each well and incubated for 30 minutes prior to measuring the PKC activity. Vehicle which is saline solution was the negative control and the positive control used was insulin at […].
FIG. 3. PATAS in vitro dose response to trigger PKC activity in the human adipocytes. PATAS in vitro dose response to trigger PKC activity in the human adipocytes after a 30 minutes incubation of human primary adipocyte with PATAS added to the culture medium. n=5 per group and PATAS quantities are expressed as μg per well.
Two other peptides from PKC alpha, namely ECTMVEKKVLALL (SEQ ID NO: 50) and SVEWWAYGLLYEMLA (SEQ ID NO: 51) have also been tested for their effect on PKC kinase activity.
For PKC kinase activity tests, we used ready to use mature primary human adipocytes originating from omental adipose tissue were purchased from Zenbio in either a 96-well or a 6-well plate format (Catalog #: OA-1096-3 or OA-1006-3). The PKC kinase activity Assay kit (Catalog #: 139437) and procedures were used according to manufacturer's protocol.

[1] = test system: DIO glucose intolerant male mice; assay: Glucose tolerance test (ipGTT) in DIO glucose intolerant male mice; format: in vivo; conditions: single dose 25 micrograms per mouse, ipGTT at day 6, high fat/high glucose diet
Experimental: (FIG. 5A) Glucose tolerance: Mice were injected with either vehicle (saline solution), or vehicle+PATAD 417 or vehicle+ADPIF (CPC peptide A-MRO) at day 0. 6 days later (D6) the mice were fasted for 4 hours and at 0 minute received a […] glucose injection to perform the ipGTT. Glucose levels were measured from tail blood every 30 minutes. Besides the control mice which were fed on chow diet (CTL Chow diet), all the other mice were fed on a high fat/high glucose diet.
Mice were injected with a single dose (25 micrograms per mouse) of either scramble peptide or PATAD or ADPIF/PATAS. These are results obtained from series of glucose tolerance test (ipGTT) in DIO glucose intolerant male mice (FIGS. 5A and B).
At day 0: all mice were fasted for 4 hours in the morning. At 1:00 p.m., control mice received one injection of (body weight in grams)×10 […] of 22% glucose solution ([…] injection). Treated mice were injected with either 25 ug (2.5 uL of mother solution) of tested peptide dissolved in (body weight in grams)×10 of the 22% glucose solution. Blood glucose levels were measured from tail vein blood at every 30 minutes intervals and plotted to determine the effect of the different treatments on the area under the curve.

[2] = test system: primary human mature adipocytes; assay: Glucose uptake assay in human mature adipocytes (2-DG, Abcam kit); format: cell-based; conditions: 30 minutes with 2-DG, without insulin, 2.5 μL of peptide at 10 μg/μL in 200 μL; N=8; compared with insulin
Experimental: FIG. 4: Glucose uptake in human primary mature adipocyte. N=8 per group.
Human primary preadipocyte were cultured in a 96-well plate and differentiated in mature human adipocytes. After 3 weeks of culture post adipogenesis, the adipocytes were incubated in culture medium without insulin for 2 hours. Following these 2 hours of insulin fasting, the media were changed back wither either medium without insulin (−INS) or medium with insulin (+INS) or medium with ADPIF (PATAS) for 30 minutes together with 2-DG, a glucose analogue used to determine glucose uptake in the Abcam kit. Following the manufacturer's protocol, we then measured the glucose uptake in 8 wells per condition and calculated the mean that was then plotted in the histogram with the standard error of the mean for the error bars shown in […] FIG. 4.
Human white visceral preadipocytes (Catalog #: C-12732; PromoCell) were purchased. The preadipocytes were seeded according to manufacturer's protocol and cultured in the Preadipocyte growth medium (Catalog #: C-27410; PromoCell) to confluence. Adipogenic differentiation was induced by changing the medium to the Preadipocyte Differentiation Medium (Catalog #: C-27436; PromoCell) for 2 days. After the differentiation phase, the medium was finally changed to the Adipocyte Nutrition medium (Catalog #: C-27438; PromoCell). […]

db/db male mice = assay: ipGTT in db/db (BKS) diabetic mice; format: in vivo; conditions: 2 mg/kg BW subcutaneous, ipGTT day 4 post-injection, 6-week-old db/db mice on chow diet
Experimental: (FIG. 6A) Blood glucose excursion curve during ipGTT on day 4 post-PATAS subcutaneous injection (2 mg/kg BW PATAS dosing) in 6-week-old db/db male mice on chow diet Post 8 hours fasting. Glucose bolus (2 g/kg body weight) administered […] at T=Omin and the associated AUC histogram (n=10 mice per group Significance was set at *p-value≤0.05, **p-value≤0.01).
PATAS/ADPIF's activity was tested in db/db on the BKS genetic background, diabetic mouse models. […] The mice received a weekly injection of PATAS/ADPIF or vehicle for another 3 weeks followed by another 4 weeks without any treatment while being constantly monitored. […]
At day 0: all mice were fasted for 4 hours in the morning. […] Blood glucose levels were measured from tail vein blood at every 30 minutes intervals and plotted to determine the effect of the different treatments on the area under the curve.

FATP2 = assay: FATP isoform expression in subcutaneous white adipose tissue of db/db mice; format: in vivo; conditions: 4 weekly PATAS injections then 4 weeks without treatment, n=6, GAPDH reference, vs control mice
Experimental: (FIG. 6B) Following 4 weekly PATAS injections, and another 4 weeks without treatment, db/db mice sWAT. Normalized expression levels for the six FATP isoforms (FATP 1-6) in subcutaneous white adipose tissue (sWAT) were determined. n=6 per group with GAPDH as reference gene.
PATAS/ADPIF's activity was tested in db/db on the BKS genetic background, diabetic mouse models. […] The mice received a weekly injection of PATAS/ADPIF or vehicle for another 3 weeks followed by another 4 weeks without any treatment while being constantly monitored.
Total RNA was prepared from the different tissues and cells using a RiboPure™ kit (Catalog #: AM1924; Ambion) followed by a DNAse treatment with the TURBO DNA-free™ (Catalog #: AM 1907; Ambion). RNA integrity was assessed by gel electrophoresis and RNA concentration by Eppendorf Biophotometer Plus with the Hellma® Tray Cell (Catalog #: 105.810-uvs; Hellma). Reverse transcription of 1 μg total RNA to cDNA was performed using the BioRadiScript™ cDNA synthesis kit (Catalog #: 170-8891; BioRad). Real-time quantitative polymerase chain reaction amplification was performed in a BioRad CFX96 TM Real-Time System using the iQ™ SYBR® Green Supermix (Catalog #: 170-8886; BioRAd) and primer sets optimized for tested targets for SYBR Green-based real-time PCR for the real-time PCR. […]

Bbs10-/- mice = assay: ipGTT in Bbs10-/- mice (Bardet Biedl syndrome model); format: in vivo; conditions: 2 mg/kg body weight subcutaneous, 3 days post-injection
Text: FIGS. 7A-7B. PATAS is effective in improving glucose intolerance in a genetic mouse model for a rare disease associated with obesity and type 2 diabetes, the Bardet Biedl syndrome (BBS). BBS mice were on chow diet fed ad libitum. n=4 mice with a cross-over experimental set-up with ipGTT performed before injection and 3 days post-injection. Knockout mouse model for the BBS10 gene (Bbs10^−/−) were generated and spontaneously became obese as described in literature.
Knockout mouse model for the BBS10 gene (Bbs10^−/−) were generated and spontaneously became obese as described in literature.
For the obese mouse model with overt type 2 diabetes mouse, the BKS (D)-Leprdb/J, Stock No: 010803 (were purchased from the Jax Labs. Bbs10 knockout mice were generated by Institute Mouse Clinic (ICS) in Strasbourg and have been previously described in literature. All mice were on a C57/BL6 genetic background. All animals were housed in a temperature and humidity-controlled facility, with a 12 h-light/12 h-dark cycle. The BKS (D)-Leprdb/J mice were fed with chow diet (LM-485; Harlan Teklad Premier Laboratory Diets) whereas the Bbs knockout mice were fed with […] and tap water ad libitum. For ipGTT and ipITT, mice were fasted for 6 hours before start of experiment. Insulin 0.75 U/kg was injected i.v. via the tail vein. Blood glucose and samples were collected from the tail. […]

glycated albumin = assay: Glycated albumin in plasma in the STAM mice model (ELISA); format: in vivo; conditions: 5 weekly subcutaneous injections of 25 ug per mouse, 6 mice per group, vs vehicle
Text: FIG. 8. Effect of ADPIF on glycated albumin in plasma in the STAM mice model. Plasma of the treated mice from the Japanese STAMT model were used to measure circulating glycated albumin levels using a commercially available kit. The results are presented in this figure as the mean value of 6 mice per group presented with the standard error of the mean for the error bars.
Glycated albumin is a well-recognized and robust parameter to determine episodes of hyperglycemia in vivo. We therefore used the plasma from the STAMT mice that were treated for 5 weeks with weekly ADPIF/PATAS's injections at 25 ug each compared to control groups which were injected with saline.
For the non-obese STAM mouse model study, C57BL/6 mice (14-day-pregnant female) were obtained from Japan SLC, Inc. (Japan). All animals used in the study were housed and cared for in accordance with the Japanese Pharmacological Society Guidelines for Animal Use. The animals were maintained in a SPF facility under controlled conditions of temperature (23±2° C.), humidity (45±10%), lighting (12-hour artificial light and dark cycles; light from 8:00 to 20:00) and air exchange. The animals were housed in TPX cages (CLEA Japan) with a maximum of 3 mice per cage. Sterilized Paper-Clean (Japan SLC) was used for bedding and replaced once a week. […]

SVEWWAYGLLYEMLA (staple (positions not given here); not fully specified; also: hydrocarbon staple, positions not given here) [Peptide from PKC alpha with A and M carrying the stapling]
PKC kinase activity at 25 μg peptide per well (PKC): able to increase PKC kinase activity

ECTMVEKKVLALL (hydrocarbon staple; segment of kinase domain of alphaPKC) [Peptide from PKC alpha with M and A carrying the stapling]
PKC kinase activity at 25 μg peptide per well (PKC): able to increase PKC kinase activity

VE CTM-[2-(4-pentenyl) alanine]-EK RVL A-[2-(4-pentenyl) alanine]-L DKP PFL TQL HS [PATAD, reference compound]
area under the curve (AUC) of glucose tolerance test [1]: drop in the AUC

VECTTREKEVLASLDKAAFLTQLHS (staple (positions not given here); not fully specified (bridges); also: hydrocarbon staple via alkenyl Arg and Ser, positions not given here) [ADPIF/PATAS, Stapled peptide wherein R and S carry the stapling, being preferably 2-(7-octenyl)arginine and 2-(4-pentenyl)serine]
glucose uptake (glucose absorption) [2]: as effective as Insulin
PKC activity, dose response (PKC; 30 minutes incubation, PATAS quantities in μg per well, n=5): increasing PKC activity with increasing ADPIF/PATAS quantity
area under the curve (AUC) of glucose tolerance test [1]: more effective than PATAD to reduce the AUC
glucose intolerance (ipGTT) [1]: more active than PATAD peptide
glucose intolerance / hyperglycemia (ipGTT) (db/db male mice): able to prevent hyperglycemia
glucose intolerance / hyperglycemia (ipGTT) (db/db male mice; listed as PATAS/ADPIF): significant improvement of the glucose intolerance
Fatp2 expression levels in adipose tissue (sWAT) (FATP2): able to decrease the expression of FATP2
Fatp2 expression levels in adipose tissue (sWAT) (FATP2; listed as PATAS): specific and significant drop in Fatp2 expression levels
glucose tolerance (ipGTT) (Bbs10-/- mice): improved glucose tolerance
ipGTT area under the curve (AUC) (Bbs10-/- mice; before injection ~30000, n=4): ~16000 mg·min/dL
glycated albumin levels in plasma (glycated albumin): significant drop in glycated albumin
glycated albumin levels in plasma (glycated albumin; listed as ADPIF): significant drop in glycated albumin levels
